The source of these data is patent publication US8822410B2, “Tympanic membrane permeating ear drops and uses thereof” (Children's Medical Center Corporation, priority 2008, dated 2014).

Data set [1] can be described thus: pH of ciprofloxacin solutions. In kind it is physicochemical. The settings on record: 1% ciprofloxacin solution.
Another data set relates to H. influenza. To be noted: middle ear infections; cited from earlier work.
The next data set has as its system S. pneumoniae. The settings on record: middle ear infections; cited from earlier work.

Consider `O=C(O)c1cn(C2CC2)c2cc(N3CCNCC3)c(F)cc2c1=O` [ciprofloxacin], for which, in data set [1], the “pH of ciprofloxacin solution” value is 3-4. Further, the minimum inhibitory concentration result in the data set with H. influenza and with S. pneumoniae was “about 4 μg/mL” throughout.
